Measurements taken from patent publication US20260176289A1, “SMALL MOLECULE INHIBITORS OF KRAS PROTEINS” (Merck Sharp & Dohme LLC, priority 2022, published 2026).
Read-outs that look alike come from different tables or passages of the source.

How the values were obtained:
KRAS-WT = KRAS-WT (Homo sapiens, UniProt P01116); assay: SOS-catalyzed nucleotide exchange assay (Procedure A, TR-FRET), KRAS-WT; assay type: biochemical; conditions: nucleotide exchange, read-out: KRAS WT GNE IC50
Method in brief: (§1)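 Signal ratio (520/495 nm, excitation 340 nm) reports Bodipy-GDP retention on biotinylated RAS after SOS-catalyzed exchange with 3 mM GTP. SOS was 40 nM, except 160 nM for G12V. Room-temperature exchange lasted 60 min (90 min for G12V), following a 60 min compound preincubation.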

KRAS-G12D = KRAS-G12D (Homo sapiens, UniProt P01116, G12D); assay: SOS-catalyzed nucleotide exchange assay (Procedure A, TR-FRET), KRAS-G12D; assay type: biochemical; conditions: nucleotide exchange, read-out: KRAS G12D GNE IC50
Method in brief: as §1

KRAS-G12V = KRAS-G12V (Homo sapiens, UniProt P01116, G12V); assay: SOS-catalyzed nucleotide exchange assay (Procedure A, TR-FRET), KRAS-G12V; assay type: biochemical; conditions: nucleotide exchange, read-out: KRAS G12V GNE IC50
Method in brief: as §1

MKN-1 cells = assay: Cellular phospho-ERK assay, MKN-1 cells (amplified wild-type KRAS); assay type: cell-based; conditions: Homo sapiens, read-out: MKN1 pERK IC50
Protocol: (§2) Procedure for Cellular Phospho-ERK Assay in KRAS Wild Type and Mutant (G12D, G12V) Cell Lines
(§3) MKN-1 cells (JCRB JCRB0252) containing amplified wild-type KRAS, were cultured in growth medium that contains RPMI 1640-GlutaMAX™-I (ThermoFisher Scientific 61870) containing 10% heat inactivated fetal bovine serum (ThermoFisher Scientific 10091148), 1 mM sodium pyruvate and 10 mM HEPES. PANC08.13 cells (ATCC® CRL-2551™), containing homozygous KRAS-G12D activating mutation, were cultured in growth medium made of RPMI1640-GlutaMAX™-I (ThermoFisher Scientific 61870) containing 15% heat inactivated fetal bovine serum (ThermoFisher Scientific 10091148)). AsPC-1 cells (ATCC® CRL-1682™), containing homozygous KRAS-G12D activating mutation, were cultured in T150 flask in growth medium (RPMI medium 1640-GlutaMAX™-I (ThermoFisher Scientific 61870) containing 10% fetal bovine serum (ThermoFisher Scientific 10091148)). SW620 cells (ATCC® […]), containing homozygous KRAS-G12V activating mutation, were cultured in growth medium that contains RPMI 1640-GlutaMAX™-I (ThermoFisher Scientific 61870) containing 10% heat inactivated fetal bovine serum (ThermoFisher Scientific 10091148).
(§4) Cells for the assay were harvested in growth medium after TrypLE (ThermoFisher scientific 12604021) digestion and were seeded in a 384-well collagen coated cell culture plate (Corning 356702) at a density of 10,000-15,000 cells/20 μL/well, and incubated at 37° C., 5% CO2 overnight. The compound (with 10 mM stock concentration) dose-response titrations were prepared [30 μM final ERK detection assay concentration and 1:3 dilutions, 10-point dose response] and appropriate amounts (270 nL) of test compounds were dispensed in a 384-well intermediate plate using an Echo 550 liquid handler. 30 μL/well of RPMI medium 1640-GlutaMAX™—I was added to the intermediate plate and the contents of the intermediate plate (10 μL/well) were then transferred to the 384-well collagen coated cell culture plate, which was incubated at 37° C., 5% CO2 for 2 hours. After removal of medium from the collagen coated cell culture plate, cells were lysed in lysis buffer from Alpha SureFire® Ultra™ Multiplex p-ERK and total ERK assay kit (PerkinElmer MPSU-PTERK) containing Halt™ Protease and Phosphatase inhibitor cocktail (ThermoFisher Scientific 78446) at room temperature with constant shaking at 300 rpm for 30 minutes. The cell lysates were then transferred to an OptiPlate-384 plate (PerkinElmer 6005620), and the phosphorylation of ERK (p-ERK) and total ERK levels were detected by Alpha SureFire® Ultra™ Multiplex p-EEK kit and total ERK assay kit (PerkinElmer MPSU-PTERK) following the manufacturer's protocol. Assay plates were read on a En Vision Multimode Plate Reader (PerkinElmer), and the ratio of p-ERK vs. total ERK in each well was used as the final readout. Dose response curves were analyzed using a 4-parameter logistic model to calculate IC50 values using Spotfire software.

AsPC-1 cells = assay: Cellular phospho-ERK assay, AsPC-1 cells (homozygous KRAS-G12D); assay type: cell-based; conditions: Homo sapiens, ASPC1, 2 h, read-out: AsPC1 pERK IC50
Method in brief: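 10k–15k cells/well, o/n attach; cpd 2 h, 37 °C, 10-pt 1:3 from 30 μM final; lyse with protease/phosphatase inhibitors 30 min RT; multiplex SureFire p-ERK + total ERK; IC50 via 4PL on ratio.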

SW620 cells = assay: Cellular phospho-ERK assay, SW620 cells (homozygous KRAS-G12V); assay type: cell-based; conditions: Homo sapiens, read-out: SW620 pERK IC50
Protocol: as §2, §3, §4

[1] = amplified wild-type KRAS, 2 hours

Sequence of KRAS-WT (P01116 with tags, fused parts or gaps isoform P01116-2): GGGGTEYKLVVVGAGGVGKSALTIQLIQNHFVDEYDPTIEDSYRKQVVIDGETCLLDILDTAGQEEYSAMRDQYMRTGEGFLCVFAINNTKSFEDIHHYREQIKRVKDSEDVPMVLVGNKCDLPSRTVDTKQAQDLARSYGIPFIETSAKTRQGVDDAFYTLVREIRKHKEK
Sequence of KRAS-G12D (P01116 with tags, fused parts or gaps isoform P01116-2 G12D): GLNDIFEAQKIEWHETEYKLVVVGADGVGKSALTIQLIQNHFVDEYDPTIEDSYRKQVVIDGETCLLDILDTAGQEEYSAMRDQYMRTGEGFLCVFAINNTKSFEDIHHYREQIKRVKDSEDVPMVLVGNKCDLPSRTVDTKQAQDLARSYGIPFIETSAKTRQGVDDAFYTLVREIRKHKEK
Sequence of KRAS-G12V (P01116 with tags, fused parts or gaps isoform P01116-2 G12V): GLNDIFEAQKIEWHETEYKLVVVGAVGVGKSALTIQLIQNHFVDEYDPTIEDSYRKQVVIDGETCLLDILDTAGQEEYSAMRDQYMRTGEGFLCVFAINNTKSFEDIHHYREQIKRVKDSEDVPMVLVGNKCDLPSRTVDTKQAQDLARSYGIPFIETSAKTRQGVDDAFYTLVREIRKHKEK

IC50 (MKN-1 cells; 2 hours compound incubation)	IC50 (AsPC-1 cells; 2 hours compound incubation)	IC50 (SW620 cells; SW-620, 2 hours compound incubation)	Compound	IC50 (KRAS-WT)	IC50 (KRAS-G12D)	IC50 (KRAS-G12V)	IC50 (MKN-1 cells; [1])	IC50 (AsPC-1 cells; KRAS-G12D, 2 hours)	IC50 (SW620 cells; SW-620, KRAS-G12V, 2 hours)
–	–	–	Cc1cc2[nH]ncc2c(-c2nccc3c2sc2nc(OC[C@@]45CCCN4C[C@H](F)C5)nc(N4CCOC[C@@](C)(O)C4)c23)c1[C@@H]1C[C@H]1C (atropisomer, axis not shown; (aS)) [Ex-67, (S)-4-((R)-2-(((2R,7aS)-2-fluorotetrahydro-1H-pyrrolizin-7a(5H)-yl)methoxy)-8-(6-methyl-5-((1R,2R)-2-methylcyclopropyl)-1H-indazol-4-yl)pyrido[4′,3′:4,5]thieno [2,3-d]pyrimidin-4-yl)-6-methyl-1,4-oxazepan-6-o1]	40 nM	11.9 nM	23.1 nM	186 nM	113 nM	323 nM
–	–	–	Cn1c2nc(OC[C@@]34CCCN3C[C@H](F)C4)nc(N3CCOC[C@@](C)(O)C3)c2c2ccnc(-c3c(C4(F)CC4)c(Cl)cc4[nH]ncc34)c21 (single isomer, unassigned) [Ex-3]	17.2 nM	10.5 nM	15.3 nM	134 nM	207 nM	95.5 nM
–	–	–	CCC1c2c(cc3[nH]ncc3c2-c2nccc3c2sc2nc(OC[C@@]45CCCN4C[C@H](F)C5)nc(N4CCOC[C@@](C)(O)C4)c23)CC1(F)F (single isomer, unassigned) [Ex-108]	3.09 nM	1.52 nM	5.41 nM	28.9 nM	50 nM	20.9 nM
80.7 nM	175 nM	79.4 nM	C[C@@]1(O)COCCN(c2nc(OC[C@@]34CCN3C[C@H](F)C4)nc3sc4c(-c5c(C6CC6)c(Cl)cc6[nH]ncc56)nccc4c23)C1 (single isomer, unassigned) [Ex-221]	22.8 nM	5.55 nM	21.2 nM	–	–	–
–	–	–	C[C@@]1(O)COCCN(c2nc(OC[C@@]34CCCN3C[C@H](F)C4)nc3c(Cl)c4c(-c5c(C6CC6)c(Cl)cc6[nH]ncc56)nccn4c23)C1 (single isomer, unassigned) [Ex-300]	14.4 nM	6.53 nM	8.43 nM	54.6 nM	222 nM	39.8 nM
–	–	–	Cc1c2nc(OC[C@@]34CCCN3C[C@H](F)C4)nc(N3CCOC[C@@](C)(O)C3)c2n2ccnc(-c3c(C4CC4)c(Cl)cc4[nH]ncc34)c12 (single isomer, unassigned) [Ex-302]	18.6 nM	8.99 nM	17 nM	49.5 nM	135 nM	48.9 nM
–	–	–	Cc1c(C(F)(F)F)c(-c2nccc3c2sc2nc(OC[C@@]45CCCN4C[C@H](F)C5)nc(N4CCOC[C@@](C)(O)C4)c23)c2cn[nH]c2c1F [Ex-44, (6S)-4-(8-(7-fluoro-6-methyl-5-(trifluoromethyl)-1H-indazol-4-yl)-2-(((2R,7aS)-2-fluorotetrahydro-1H-pyrrolizin-7a(5H)-yl)methoxy)pyrido[4′,3′:4,5]thi-eno[2,3-d]pyrimidin-4-yl)-6-methyl-1,4-oxazepan-6-ol]	281 nM	141 nM	242 nM	373 nM	452 nM	281 nM
–	–	–	CCc1cc2[nH]ncc2c(-c2nccc3c2sc2nc(OC[C@@]45CCCN4C[C@H](F)C5)nc(N4CCOC[C@@](C)(O)C4)c23)c1C1CC1 [Ex-48, (6S)-4-(8-(5-cyclopropyl-6-ethyl-1H-indazol-4-yl)-2-(((2R,7aS)-2-fluorotetrahydro-1H-pyrrolizin-7a(5H)-yl)methoxy)pyrido[4′,3′:4,5]thi-eno[2,3-d]pyrimidin-4-yl)-6-methyl-1,4-oxazepan-6-ol]	50.4 nM	18.2 nM	28.5 nM	123 nM	153 nM	106 nM
–	–	–	Cc1cc2[nH]ncc2c(-c2nccc3c2sc2nc(OC[C@@]45CCCN4C[C@H](F)C5)nc(N4CCOC[C@@](C)(O)C4)c23)c1C1(F)CC1 [Ex-54, (6S)-4-(8-(5-(1-fluorocyclopropyl)-6-methyl-1H-indazol-4-yl)-2-(((2R,7aS)-2-fluorotetrahydro-1H-pyrrolizin-7a(5H)-yl)methoxy)pyrido[4′,3′:4,5]thi-eno[2,3-d)pyrimidin-4-yl)-6-methyl-1,4-oxazepan-6-ol]	10.8 nM	5.06 nM	11.1 nM	56.5 nM	84.6 nM	186 nM
–	–	–	C[C@@]1(O)COCCN(c2nc(OC[C@@]34CCCN3C[C@H](F)C4)nc3sc4c(-c5c(C6(F)CC6)c(C(F)(F)F)cc6[nH]ncc56)nccc4c23)C1 [Ex-55, (6S)-4-(8-(5-(1-fluorocyclopropyl)-6-(trifluoromethyl)-1H-indazol-4-yl)-2-(((2R,7aS)-2-fluorotetrahydro-1H-pyrrolizin-7a(5H)-yl)methoxy)pyrido[4′,3′:4,5]thi-eno[2,3-d]pyrimidin-4-yl)-6-methyl-1,4-oxazepan-6-ol]	26.4 nM	9.34 nM	18.2 nM	45 nM	107 nM	45.9 nM
–	–	–	Cc1cc2[nH]ncc2c(-c2nccc3c2sc2nc(OC[C@@]45CCCN4C[C@H](F)C5)nc(N4CCOC[C@@](C)(O)C4)c23)c1C1(C)CC1 [Ex-62, (6S)-4-(2-(((2R,7aS)-2-fluorotetrahydro-1H-pyrrolizin-7a(5H)-yl)methoxy)-8-(6-methyl-5-(1-methylcyclopropyl)-1H-indazol-4-yl)pyrido[4′,3′:4,5]thieno [2,3-d]pyrimidin-4-yl)-6-methyl-1,4-oxazepan-6-ol]	53.7 nM	29.8 nM	21.7 nM	251 nM	175 nM	131 nM
–	–	–	Cc1cc2[nH]ncc2c(-c2nccc3c2sc2nc(OC[C@@]45CCCN4C[C@H](F)C5)nc(N4CCOC[C@@](C)(O)C4)c23)c1C1CC1(F)F (stereo partly drawn) [Ex-63, (6S)-4-(8-(5-(2,2-difluorocyclopropyl)-6-methyl-1H-indazol-4-yl)-2-(((2R,7aS)-2-fluorotetrahydro-1H-pyrrolizin-7a(5H)-yl)methoxy)pyrido[4′,3′:4,5]thi-eno[2,3-d]pyrimidin-4-yl)-6-methyl-1,4-oxazepan-6-ol]	55.2 nM	19.6 nM	39.3 nM	114 nM	185 nM	121 nM
